Assay results as given in article PMC6968383, “Design, synthesis, in vitro and in vivo evaluation of benzylpiperidine-linked 1,3-dimethylbenzimidazolinones as cholinesterase inhibitors against Alzheimer’s disease” (Journal of Enzyme Inhibition and Medicinal Chemistry, 2019).
Where two headings read alike, the source gives them in different places.

Tests used:
[1] = target: T1, BChE (EC 3.1.1.8) from horse serum (Equus caballus, UniProt P81908); test: biochemical; conditions: for inhibition at 100 µM: compound at 100 μM, read-out: BChE IR (inhibitory rate)
T1 construct: horse serum BChE (eqBChE, Sigma-Aldrich); purchased Sigma-Aldrich; host or cells: horse serum
Procedure: (§1) The data were expressed as IC50 values (Table 1).
(§2) The inhibitory activities of the target compounds towards AChE (from Electrophorus electricus (electric eeAChE, Sigma-Aldrich) and horse serum BChE (eqBChE, Sigma-Aldrich) or human AChE – huAChE; human BuChE – huBuChE (huAChE, huBuChE, Sigma-Aldrich) were measured by Ellman’s method. In 96-well plates, a mixture of phosphate buffer (0.1 M, pH 8.0, […]), 5,5′-dithiobis-2-nitrobenzoic acid (DTNB, 60 µL), acetylcholinestrase or butyrylcholinesterase (20 µL, 5 IU/mL) and different concentration of the compound solution (30 µL) was pre-incubated for 5 min followed by the addition of the substrate (acetylthiocholine iodide or butyrylthiocholine iodide, 20 µL). […] The measurement of each concentration for each compound was detected in triplicate. GraphPad Prism 6.0 (GraphPad Software, Inc., La Jolla, CA) was used for data processing. The inhibition curve was fitted by plotting percentage enzyme activity (100% for the reference) versus the logarithm of the concentration of tested compound. The half-maximal inhibitory concentration (IC50) values were calculated according to the inhibition curve and the data were shown in the layout of mean ± SEM by GraphPad Prism 6.0.

[2] = target: T2, AChE (EC 3.1.1.7) from electric eel (Electrophorus electricus, UniProt O42275); test: biochemical; format: biochemical; conditions: for SI (selectivity index = AChE IC50/BChE IC50): eeAChE IC50 / eqBChE IC50; for inhibition at 100 µM: read-out: AChE IR (inhibitory rate)
T2 construct: purchased Sigma-Aldrich
Procedure: as §1, §2

[3] = eeAChE, mean ± SEM of triplicate independent experiments, read-out: AChE IC50
[4] = eqBChE, mean ± SEM of triplicate independent experiments, read-out: BChE IC50

T1 sequence (P81908 whole entry): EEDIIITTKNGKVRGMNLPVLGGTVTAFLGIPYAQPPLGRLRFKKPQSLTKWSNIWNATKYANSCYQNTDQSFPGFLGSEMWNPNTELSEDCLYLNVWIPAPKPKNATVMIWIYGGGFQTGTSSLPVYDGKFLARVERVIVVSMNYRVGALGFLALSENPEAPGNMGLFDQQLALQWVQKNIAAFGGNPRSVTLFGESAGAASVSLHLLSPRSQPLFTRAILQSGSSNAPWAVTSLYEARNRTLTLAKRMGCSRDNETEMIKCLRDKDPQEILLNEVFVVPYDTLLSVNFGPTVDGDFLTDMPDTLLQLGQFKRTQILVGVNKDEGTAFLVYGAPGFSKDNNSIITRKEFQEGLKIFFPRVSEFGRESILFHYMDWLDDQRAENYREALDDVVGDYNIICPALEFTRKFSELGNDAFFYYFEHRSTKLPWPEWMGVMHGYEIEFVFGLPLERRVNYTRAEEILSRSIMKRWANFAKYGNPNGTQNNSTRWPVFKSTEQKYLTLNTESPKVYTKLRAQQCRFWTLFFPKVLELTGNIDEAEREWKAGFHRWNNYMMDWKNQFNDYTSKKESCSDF
T2 sequence (O42275 24-633): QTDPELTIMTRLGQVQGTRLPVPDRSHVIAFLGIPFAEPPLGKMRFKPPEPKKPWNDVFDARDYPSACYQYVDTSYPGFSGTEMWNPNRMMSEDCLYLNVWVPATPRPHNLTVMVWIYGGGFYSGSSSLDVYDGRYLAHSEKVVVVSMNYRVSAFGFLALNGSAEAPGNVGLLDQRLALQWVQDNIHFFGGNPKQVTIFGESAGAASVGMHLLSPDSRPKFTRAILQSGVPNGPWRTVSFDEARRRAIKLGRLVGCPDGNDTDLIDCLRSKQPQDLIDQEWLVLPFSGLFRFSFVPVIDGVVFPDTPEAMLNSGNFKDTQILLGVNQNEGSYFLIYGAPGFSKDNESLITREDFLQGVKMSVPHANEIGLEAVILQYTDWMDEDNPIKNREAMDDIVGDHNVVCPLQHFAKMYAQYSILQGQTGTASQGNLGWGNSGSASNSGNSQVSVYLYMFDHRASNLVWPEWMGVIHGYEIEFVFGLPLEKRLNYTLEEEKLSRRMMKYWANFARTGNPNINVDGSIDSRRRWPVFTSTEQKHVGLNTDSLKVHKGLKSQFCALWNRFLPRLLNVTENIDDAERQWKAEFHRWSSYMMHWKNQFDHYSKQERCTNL

Compound	inhibition at 100 µM ([1]; eqBChE) [%]	IC50 [2, 3] [µM]	also measured
Cn1c(=O)n(C)c2cc(C(=O)NCC3CCN(Cc4ccccc4Cl)CC3)ccc21 [Compound 9k, N-((1–(2-chlorobenzyl)piperidin-4-yl)methyl)-1,3-dimethyl-2-oxo-2,3-dihydro-1H-benzo[d]imidazole-5-carboxamide]	46.5	3.92 ± 1.2	
O=C(NCC1CCN(Cc2ccccc2Cl)CC1)c1ccc2[nH]cnc2c1 [Compound 11e, N-((1–(2-chlorobenzyl)piperidin-4-yl)methyl)-1H-benzo[d]imidazole-5-carboxamide]	42.1		IC50 [2]: 7.48 ± 3.1 µM
Cn1c(=O)n(C)c2cc(S(=O)(=O)NCC3CCN(Cc4cccc(Cl)c4)CC3)ccc21 [Compound 15g, N-((1–(3-chlorobenzyl)piperidin-4-yl)methyl)-1,3-dimethyl-2-oxo-2,3-dihydro-1H-benzo[d]imidazole-5-sulphonamide]		0.15 ± 0.02	IC50 [1, 4]: 1.01 ± 0.46 µM; SI (selectivity index = AChE IC50/BChE IC50) [2]: 0.15
Cn1c(=O)n(C)c2cc(S(=O)(=O)NCC3CCN(Cc4ccc(Cl)cc4)CC3)ccc21 [Compound 15h, N-((1–(4-chlorobenzyl)piperidin-4-yl)methyl)-1,3-dimethyl-2-oxo-2,3-dihydro-1H-benzo[d]imidazole-5-sulphonamide]		1.95 ± 0.28	IC50 [1, 4]: 2.23 ± 0.81 µM; SI (selectivity index = AChE IC50/BChE IC50) [2]: 0.87
Cn1c(=O)n(C)c2cc(C(=O)NCC3CCN(Cc4ccc(Br)cc4)CC3)ccc21 [Compound 9p, N-((1–(4-bromobenzyl)piperidin-4-yl)methyl)-1,3-dimethyl-2-oxo-2,3-dihydro-1H-benzo[d]imidazole-5-carboxamide]	38.5	11.1 ± 6.42	
Cc1cccc(CN2CCC(CNS(=O)(=O)c3ccc4c(c3)n(C)c(=O)n4C)CC2)c1 [Compound 15c, 1,3-dimethyl-N-((1–(3-methylbenzyl)piperidin-4-yl)methyl)-2-oxo-2,3-dihydro-1H-benzo[d]imidazole-5-sulphonamide]		0.54 ± 0.14	IC50 [1, 4]: 0.47 ± 0.17 µM; SI (selectivity index = AChE IC50/BChE IC50) [2]: 1.14
Cn1c(=O)n(C)c2cc(C(=O)NCC3CCN(Cc4ccccc4F)CC3)ccc21 [Compound 9h, N-((1–(2-fluorobenzyl)piperidin-4-yl)methyl)-1,3-dimethyl-2-oxo-2,3-dihydro-1H-benzo[d]imidazole-5-carboxamide]	30	16.2 ± 4.34	
COc1cccc(CN2CCC(CNS(=O)(=O)c3ccc4c(c3)n(C)c(=O)n4C)CC2)c1 [Compound 15e, N-((1–(3-methoxybenzyl)piperidin-4-yl)methyl)-1,3-dimethyl-2-oxo-2,3-dihydro-1H-benzo[d]imidazole-5-sulphonamide]		9.35 ± 2.32	IC50 [1, 4]: 20.3 ± 3.08 µM; SI (selectivity index = AChE IC50/BChE IC50) [2]: 0.45
Cn1c(=O)n(C)c2cc(C(=O)NCC3CCN(Cc4cccc(Cl)c4)CC3)ccc21 [Compound 9l, N-((1–(3-chlorobenzyl)piperidin-4-yl)methyl)-1,3-dimethyl-2-oxo-2,3-dihydro-1H-benzo[d]imidazole-5-carboxamide]	36.9	6 ± 3.31	
COc1ccc(CN2CCC(CNC(=O)c3ccc4[nH]ccc4c3)CC2)cc1 [Compound 11a, N-((1–(4-methoxybenzyl)piperidin-4-yl)methyl)-1H-indole-5-carboxamide]			IC50 [1]: 10.8 ± 5.55 µM; IC50 [2]: 38.1 ± 12.8 µM; SI (selectivity index = AChE IC50/BChE IC50) [2]: 3.54
Cn1c(=O)n(C)c2cc(C(=O)NCC3CCN(Cc4cccc(F)c4)CC3)ccc21 [Compound 9i, N-((1–(3-fluorobenzyl)piperidin-4-yl)methyl)-1,3-dimethyl-2-oxo-2,3-dihydro-1H-benzo[d]imidazole-5-carboxamide]		2.93 ± 1.96	IC50 [1, 4]: 95.1 ± 59.3 µM
Cc1cccc(CN2CCC(CNC(=O)c3ccc4c(c3)n(C)c(=O)n4C)CC2)c1 [Compound 9c, 1,3-dimethyl-N-((1–(3-methylbenzyl)piperidin-4-yl)methyl)-2-oxo-2,3-dihydro-1H-benzo[d]imidazole-5-carboxamide]	44	3.83 ± 2.04	
COc1cccc(CN2CCC(CNC(=O)c3ccc4c(c3)n(C)c(=O)n4C)CC2)c1 [Compound 9f, N-((1–(3-methoxybenzyl)piperidin-4-yl)methyl)-1,3-dimethyl-2-oxo-2,3-dihydro-1H-benzo[d]imidazole-5-carboxamide]	25		inhibition at 100 µM [2]: 33.5%
Cn1c(=O)n(C)c2cc(C(=O)NCC3CCN(Cc4cccc(Br)c4)CC3)ccc21 [Compound 9o, N-((1–(3-bromobenzyl)piperidin-4-yl)methyl)-1,3-dimethyl-2-oxo-2,3-dihydro-1H-benzo[d]imidazole-5-carboxamide]	42.8	3.69 ± 1.83	
Cn1c(=O)n(C)c2cc(C(=O)NCC3CCN(Cc4ccc(Cl)cc4)CC3)ccc21 [Compound 9m, N-((1–(4-chlorobenzyl)piperidin-4-yl)methyl)-1,3-dimethyl-2-oxo-2,3-dihydro-1H-benzo[d]imidazole-5-carboxamide]	49.9	0.21 ± 0.03	fold increase of inhibitory activity towards AChE compared to 9a ([2]; eeAChE): 15 fold
COc1ccc(CN2CCC(CNC(=O)c3ccc4[nH]ncc4c3)CC2)cc1 [Compound 11b, N-((1–(4-methoxybenzyl)piperidin-4-yl)methyl)-1H-indazole-5-carboxamide]	44.6		inhibition at 100 µM [2]: 48.6%
Cc1ccc(CN2CCC(CNS(=O)(=O)c3ccc4c(c3)n(C)c(=O)n4C)CC2)cc1 [Compound 15d, 1,3-dimethyl-N-((1–(4-methylbenzyl)piperidin-4-yl)methyl)-2-oxo-2,3-dihydro-1H-benzo[d]imidazole-5-sulphonamide]		24.8 ± 3.48	IC50 [1, 4]: 100 ± 22.1 µM; SI (selectivity index = AChE IC50/BChE IC50) [2]: 0.24
O=C(NCC1CCN(Cc2ccccc2Cl)CC1)c1ccc2[nH]ncc2c1 [Compound 11c, N-((1–(2-chlorobenzyl)piperidin-4-yl)methyl)-1H-indazole-5-carboxamide]			IC50 [1]: 21.3 ± 5 µM; IC50 [2]: 5.44 ± 2.22 µM; SI (selectivity index = AChE IC50/BChE IC50) [2]: 0.26
COc1ccc(CN2CCC(CNC(=O)c3ccc4c(c3)n(C)c(=O)n4C)CC2)cc1 [Compound 9g, N-((1–(4-methoxybenzyl)piperidin-4-yl)methyl)-1,3-dimethyl-2-oxo-2,3-dihydro-1H-benzo[d]imidazole-5-carboxamide]	41.5	5.17 ± 2.25	
COc1ccc(CN2CCC(CNC(=O)c3ccc4[nH]cnc4c3)CC2)cc1 [Compound 11d, N-((1–(4-methoxybenzyl)piperidin-4-yl)methyl)-1H-benzo[d]imidazole-5-carboxamide]	16.5		inhibition at 100 µM [2]: 18.8%
Cc1ccccc1CN1CCC(CNC(=O)c2ccc3c(c2)n(C)c(=O)n3C)CC1 [Compound 9b, 1,3-dimethyl-N-((1–(2-methylbenzyl)piperidin-4-yl)methyl)-2-oxo-2,3-dihydro-1H-benzo[d]imidazole-5-carboxamide]	41.4	8.08 ± 2.66	
Cn1c(=O)n(C)c2cc(S(=O)(=O)NCC3CCN(Cc4ccccc4Br)CC3)ccc21 [Compound 15i, N-((1–(2-bromobenzyl)piperidin-4-yl)methyl)-1,3-dimethyl-2-oxo-2,3-dihydro-1H-benzo[d]imidazole-5-sulphonamide]		0.42 ± 0.06	IC50 [1, 4]: 0.22 ± 0.04 µM
O=C(NCC1CCN(Cc2ccccc2)CC1)c1ccc2[nH]nnc2c1 [Compound 11f, N-((1-benzylpiperidin-4-yl)methyl)-1H-benzo[d][1,2,3]triazole-5-carboxamide]	43.1		IC50 [2]: 0.46 ± 0.4 µM
Cn1c(=O)n(C)c2cc(C(=O)NCC3CCN(Cc4ccccc4)CC3)ccc21 [Compound 9a, N-((1-benzylpiperidin-4-yl)methyl)-1,3-dimethyl-2-oxo-2,3-dihydro-1H-benzo[d]imidazole-5-carboxamide]	43.9	3.14 ± 1.12	
Cc1ccc(CN2CCC(CNC(=O)c3ccc4c(c3)n(C)c(=O)n4C)CC2)cc1C [Compound 9e, N-((1–(3,4-dimethylbenzyl)piperidin-4-yl)methyl)-1,3-dimethyl-2-oxo-2,3-dihydro-1H-benzo[d]imidazole-5-carboxamide]	30.8	9.97 ± 2.52	
Cn1c(=O)n(C)c2cc(C(=O)NCC3CCN(Cc4ccccc4Br)CC3)ccc21 [Compound 9n, N-((1–(2-bromobenzyl)piperidin-4-yl)methyl)-1,3-dimethyl-2-oxo-2,3-dihydro-1H-benzo[d]imidazole-5-carboxamide]	43.5	8.87 ± 4.56	
Cc1ccc(CN2CCC(CNC(=O)c3ccc4c(c3)n(C)c(=O)n4C)CC2)cc1 [Compound 9d, 1,3-dimethyl-N-((1–(4-methylbenzyl)piperidin-4-yl)methyl)-2-oxo-2,3-dihydro-1H-benzo[d]imidazole-5-carboxamide]	37.8	25.7 ± 12.3	
